Test results: patent publication US20220081387A1, “METHODS FOR PREPARING AMMONIUM TETRATHIOMOLYBDATE” (Alexion Pharmaceuticals, Inc., priority 2019, published 2022)

What was measured:
[1] = Long-term stability study of ATTM samples, determined by HPLC; type: physicochemical
Procedure: ATTM Samples 1 and 2 were prepared essentially according to procedure in Example 1 starting with 12 kg of ammonium heptamolybdate. The isolated product was packed and stored immediately. Specifically, the samples were packaged corresponding to the packaging of the bulk material under argon in transparent anti-static polyethylene plastic bags, 90 10 10, 110 mm×170 mm, and the bags containing the samples were sealed with a plastic tie, and then subsequently packed in welded aluminium bags along with a drying agent in-between the two bags. Additional samples were packaged with ambient atmosphere in transparent anti-static polyethylene plastic bags, 90 10 10, 110 mm×170 mm. The bags containing the samples were sealed with a plastic tie, and then subsequently packed in welded aluminium bags along with a drying agent in-between the two bags.

[2] = ATTM solubility in sample solution (HPLC), methanol, ethanol and purified water; type: physicochemical; settings: ethanol, purified water
Procedure: The ATTM solubility was measured in sample solution (HPLC), methanol, ethanol and purified water.

## [NH4+].[NH4+].[SH-].[SH-].[S]=[Mo]=[S] [ATTM, Ammonium tetrathiomolybdate]
[1]; after 6 months, by HPLC
  degradation of ATTM on storage: no significant degradation
[2]
  ATTM solubility: lowest in alcohols, particularly in ethanol, and higher in water

## [NH4+].[NH4+].[SH-].[SH-].[S]=[Mo]=[S] [Sample 1, ammonium tetrathiomolybdate]
[1]; 5 °C, Air, 3 mo
  (NH4)6Mo7O24: <0.05 w/w %
  ATTM: 99.2 w/w %
  Dimer S6: <0.05 w/w %
  TM1: <0.05 w/w %
  TM2: <0.05 w/w %
  TM3: 0.93 w/w %
[1]; 5 °C, Air, 6 mo
  (NH4)6Mo7O24: <0.05 w/w %
  ATTM: 98.6 w/w %
  Dimer S6: <0.05 w/w %
  Insoluble materials: <0.1 w/w %
  TM1: <0.05 w/w %
  TM2: <0.05 w/w %
  TM3: 0.94 w/w %
[1]; 5 °C, Air, Initial
  (NH4)6Mo7O24: <0.05 w/w %
  ATTM: 98.8 w/w %
  Dimer S6: <0.05 w/w %
  Insoluble materials: <0.1 w/w %
  TM1: <0.05 w/w %
  TM2: <0.05 w/w %
  TM3: 0.77 w/w %
[1]; 5 °C, Ar, 3 mo
  (NH4)6Mo7O24: <0.05 w/w %
  ATTM: 99.1 w/w %
  Dimer S6: <0.05 w/w %
  TM1: <0.05 w/w %
  TM2: <0.05 w/w %
  TM3: 0.96 w/w %
[1]; 5 °C, Ar, 6 mo
  (NH4)6Mo7O24: <0.05 w/w %
  ATTM: 99.0 w/w %
  Dimer S6: <0.05 w/w %
  Insoluble materials: <0.1 w/w %
  TM1: <0.05 w/w %
  TM2: <0.05 w/w %
  TM3: 0.97 w/w %
[1]; 5 °C, Ar, Initial
  (NH4)6Mo7O24: <0.05 w/w %
  ATTM: 98.8 w/w %
  Dimer S6: <0.05 w/w %
  Insoluble materials: <0.1 w/w %
  TM1: <0.05 w/w %
  TM2: <0.05 w/w %
  TM3: 0.77 w/w %
[1]; −20 °C, Air, 3 mo
  (NH4)6Mo7O24: <0.05 w/w %
  ATTM: 99.3 w/w %
  Dimer S6: <0.05 w/w %
  TM1: <0.05 w/w %
  TM2: <0.05 w/w %
  TM3: 0.93 w/w %
[1]; −20 °C, Air, 6 mo
  (NH4)6Mo7O24: <0.05 w/w %
  ATTM: 99.0 w/w %
  Dimer S6: <0.05 w/w %
  Insoluble materials: <0.1 w/w %
  TM1: <0.05 w/w %
  TM2: <0.05 w/w %
  TM3: 0.82 w/w %
[1]; −20 °C, Air, Initial
  (NH4)6Mo7O24: <0.05 w/w %
  ATTM: 98.8 w/w %
  Dimer S6: <0.05 w/w %
  Insoluble materials: <0.1 w/w %
  TM1: <0.05 w/w %
  TM2: <0.05 w/w %
  TM3: 0.77 w/w %
[1]; −20 °C, Ar, 3 mo
  (NH4)6Mo7O24: <0.05 w/w %
  ATTM: 99.5 w/w %
  Dimer S6: <0.05 w/w %
  TM1: <0.05 w/w %
  TM2: <0.05 w/w %
  TM3: 1.05 w/w %
[1]; −20 °C, Ar, 6 mo
  (NH4)6Mo7O24: <0.05 w/w %
  ATTM: 99.1 w/w %
  Dimer S6: <0.05 w/w %
  Insoluble materials: <0.1 w/w %
  TM1: <0.05 w/w %
  TM2: <0.05 w/w %
  TM3: 0.88 w/w %
[1]; −20 °C, Ar, Initial
  (NH4)6Mo7O24: <0.05 w/w %
  ATTM: 98.8 w/w %
  Dimer S6: <0.05 w/w %
  Insoluble materials: <0.1 w/w %
  TM1: <0.05 w/w %
  TM2: <0.05 w/w %
  TM3: 0.77 w/w %

## [NH4+].[NH4+].[SH-].[SH-].[S]=[Mo]=[S] [Sample 2, ammonium tetrathiomolybdate]
[1]; 5 °C, Air, 3 mo
  (NH4)6Mo7O24: <0.05 w/w %
  ATTM: 98.6 w/w %
  Dimer S6: <0.05 w/w %
  TM1: <0.05 w/w %
  TM2: <0.05 w/w %
  TM3: 1.13 w/w %
[1]; 5 °C, Air, 6 mo
  (NH4)6Mo7O24: <0.05 w/w %
  ATTM: 97.9 w/w %
  Dimer S6: <0.05 w/w %
  Insoluble materials: <0.1 w/w %
  TM1: <0.05 w/w %
  TM2: <0.05 w/w %
  TM3: 0.95 w/w %
[1]; 5 °C, Air, Initial
  (NH4)6Mo7O24: <0.05 w/w %
  ATTM: 98.8 w/w %
  Dimer S6: <0.05 w/w %
  Insoluble materials: <0.1 w/w %
  TM1: <0.05 w/w %
  TM2: <0.05 w/w %
  TM3: 1.01 w/w %
[1]; 5 °C, Ar, 3 mo
  (NH4)6Mo7O24: <0.05 w/w %
  ATTM: 99.0 w/w %
  Dimer S6: <0.05 w/w %
  TM1: <0.05 w/w %
  TM2: <0.05 w/w %
  TM3: 0.99 w/w %
[1]; 5 °C, Ar, 6 mo
  (NH4)6Mo7O24: <0.05 w/w %
  ATTM: 98.2 w/w %
  Dimer S6: <0.05 w/w %
  Insoluble materials: <0.1 w/w %
  TM1: <0.05 w/w %
  TM2: <0.05 w/w %
  TM3: 1.03 w/w %
[1]; 5 °C, Ar, Initial
  (NH4)6Mo7O24: <0.05 w/w %
  ATTM: 98.8 w/w %
  Dimer S6: <0.05 w/w %
  Insoluble materials: <0.1 w/w %
  TM1: <0.05 w/w %
  TM2: <0.05 w/w %
  TM3: 1.01 w/w %
[1]; −20 °C, Air, 3 mo
  (NH4)6Mo7O24: <0.05 w/w %
  ATTM: 99.4 w/w %
  Dimer S6: <0.05 w/w %
  TM1: <0.05 w/w %
  TM2: <0.05 w/w %
  TM3: 0.92 w/w %
[1]; −20 °C, Air, 6 mo
  (NH4)6Mo7O24: <0.05 w/w %
  ATTM: 98.2 w/w %
  Dimer S6: <0.05 w/w %
  Insoluble materials: <0.1 w/w %
  TM1: <0.05 w/w %
  TM2: <0.05 w/w %
  TM3: 1.13 w/w %
[1]; −20 °C, Air, Initial
  (NH4)6Mo7O24: <0.05 w/w %
  ATTM: 98.8 w/w %
  Dimer S6: <0.05 w/w %
  Insoluble materials: <0.1 w/w %
  TM1: <0.05 w/w %
  TM2: <0.05 w/w %
  TM3: 1.01 w/w %
[1]; −20 °C, Ar, 3 mo
  (NH4)6Mo7O24: <0.05 w/w %
  ATTM: 99.1 w/w %
  Dimer S6: <0.05 w/w %
  TM1: <0.05 w/w %
  TM2: <0.05 w/w %
  TM3: 1.07 w/w %
[1]; −20 °C, Ar, 6 mo
  (NH4)6Mo7O24: <0.05 w/w %
  ATTM: 98.2 w/w %
  Dimer S6: <0.05 w/w %
  Insoluble materials: <0.1 w/w %
  TM1: <0.05 w/w %
  TM2: <0.05 w/w %
  TM3: 0.98 w/w %
[1]; −20 °C, Ar, Initial
  (NH4)6Mo7O24: <0.05 w/w %
  ATTM: 98.8 w/w %
  Dimer S6: <0.05 w/w %
  Insoluble materials: <0.1 w/w %
  TM1: <0.05 w/w %
  TM2: <0.05 w/w %
  TM3: 1.01 w/w %
